The structures appear in SMILES notation.

Regarding `CCCCCCCCCCCC(=O)NCCCN(C)C` [D, dodecylamidopropyl dimethylamine], the “stability at high temperature” value was “not stable”.

The values are drawn from patent publication US20200010756A1, “SURFACTANT FOR ENHANCED OIL RECOVERY” (Total S.A., priority 2017, published 2020).
